Tested on: NCI-N87 (human stomach cancer)
Test: Combination of Compound 1 and other antitumor agents (in vitro), CellTiter-Glo, median effect method
Type: cell-based
Experimental: The supplier of each reagent, the suppliers of tumor cell lines, the media used, and the numbers of cells to be inoculated are shown in the tables below.
The cells were inoculated at 20 μL/well to a 384-well culture plate (Corning Inc.). The plate inoculated with the cells were cultured in an incubator set to 37° C. and 5% CO2. On the day following inoculation, each of mixed solutions of Compound 1 and each other antitumor agent at varying combinations of concentrations was added to the cells. Specifically, 8 serial dilutions (including (0 nM)) of Compound 1 and 10 serial dilutions (including (0 nM)) of the other antitumor agent were prepared using Leibovitz's L-15 medium containing 10% FBS, or ATCC formulated RPMI-1640 medium containing 10% FBS. Drug solutions in which equal amounts of the respective serial dilutions of the compounds were dispensed were mixed at a ratio of 1:1 to prepare a total of 80 mixed drug solutions including every combination. Each of these mixed drug solutions was added at 5 μL/well (N=4) to the plate, followed by further culture for 3 days under conditions of 37° C. and 5% CO2.
Three days later, CellTiter-Glo™ 2.0 Reagent (Promega Corporation) was added thereto at 25 μL/well, and chemiluminescence was measured using a plate reader (EnSpire® Multimode Plate Reader, PerkinElmer Japan Co., Ltd.).
The enhancement of an effect by combined use of the drugs was evaluated according to a method known in the art (a method described in Trends Pharmacol. Sci., 4, 450-454, 1983 or Pharmacol Rev., 58 (3), 621-81, 2006).
An average value from 4 wells of each combination was calculated from the obtained data, and a cell survival rate normalized against a control supplemented with a medium containing a vehicle was calculated. A Fa (fraction of affect) value was calculated by subtracting the cell survival rate from 1. Median effect analysis software CalcuSyn 2.0 (CalcuSyn, Inc.) for calculation by the median effect method was used in the calculation of CI.
As for the combinations of the concentrations of both the drugs for calculating CI, a Fa value closer to 1 presumably means a concentration range in which one of the drugs had too strong an effect, and a Fa value closer to 0 presumably means a concentration range in which any of the drugs had too weak an effect. Since these concentration ranges were not appropriate for the discussion of a synergistic effect, combinations that satisfied 0.2 S Fa 0.8 were extracted from the combinations of the respective concentrations of Compound 1 and the other antitumor agent on the basis of the calculated Fa value.
An effect of combined use was determined as shown in the table below (Pharmacol Rev., 58 (3), p. 621-81, 2006).

[1] = Compound 1 0.137 nM + Cisplatin 2062 nM, ratio 1:15030, NCI-N87
[2] = Compound 1 0.137 nM + Gemcitabine 1.37 nM, ratio 1:10, NCI-N87
[3] = Compound 1 0.137 nM + Gemcitabine 4.12 nM, ratio 1:30, NCI-N87
[4] = Compound 1 0.137 nM + Gemcitabine 12.3 nM, ratio 1:90, NCI-N87
[5] = Compound 1 0.137 nM + Trifluridine 12346 nM, ratio 1:90000, NCI-N87
[6] = Compound 1 0.412 nM + Cisplatin 2062 nM, ratio 1:5010, NCI-N87
[7] = Compound 1 0.412 nM + Cisplatin 6185 nM, ratio 1:15030, NCI-N87
[8] = Compound 1 0.412 nM + FdUrd 4115 nM, ratio 1:10000, NCI-N87
[9] = Compound 1 0.412 nM + FdUrd 12346 nM, ratio 1:30000, NCI-N87
[10] = Compound 1 0.412 nM + FdUrd 37037 nM, ratio 1:90000, NCI-N87
[11] = Compound 1 0.412 nM + Trifluridine 1372 nM, ratio 1:3333, NCI-N87
[12] = Compound 1 0.412 nM + Trifluridine 4115 nM, ratio 1:10000, NCI-N87
[13] = Compound 1 0.412 nM + Trifluridine 12346 nM, ratio 1:30000, NCI-N87
[14] = Compound 1 0.412 nM + Trifluridine 37037 nM, ratio 1:90000, NCI-N87
[15] = Compound 1 1.24 nM + Cisplatin 6185 nM, ratio 1:5010, NCI-N87
[16] = Compound 1 1.24 nM + Cisplatin 18556 nM, ratio 1:15030, NCI-N87
[17] = Compound 1 1.24 nM + FdUrd 12346 nM, ratio 1:10000, NCI-N87
[18] = Compound 1 1.24 nM + FdUrd 37037 nM, ratio 1:30000, NCI-N87
[19] = Compound 1 1.24 nM + FdUrd 111111 nM, ratio 1:90000, NCI-N87
[20] = Compound 1 1.24 nM + Gemcitabine 1.37 nM, ratio 1:1.1, NCI-N87
[21] = Compound 1 1.24 nM + Gemcitabine 4.12 nM, ratio 1:3.3, NCI-N87
[22] = Compound 1 1.24 nM + Gemcitabine 12.3 nM, ratio 1:10, NCI-N87
[23] = Compound 1 1.24 nM + Gemcitabine 37.0 nM, ratio 1:30, NCI-N87
[24] = Compound 1 1.24 nM + Gemcitabine 111 nM, ratio 1:90, NCI-N87
[25] = Compound 1 1.24 nM + Paclitaxel 5.56 nM, ratio 1:4.5, NCI-N87
[26] = Compound 1 1.24 nM + Trifluridine 1372 nM, ratio 1:1111, NCI-N87
[27] = Compound 1 1.24 nM + Trifluridine 4115 nM, ratio 1:3333, NCI-N87
[28] = Compound 1 1.24 nM + Trifluridine 12346 nM, ratio 1:10000, NCI-N87
[29] = Compound 1 1.24 nM + Trifluridine 37037 nM, ratio 1:30000, NCI-N87
[30] = Compound 1 1.24 nM + Trifluridine 111111 nM, ratio 1:90000, NCI-N87
[31] = Compound 1 3.70 nM + Cisplatin 2062 nM, ratio 1:557, NCI-N87
[32] = Compound 1 3.70 nM + Cisplatin 6185 nM, ratio 1:1670, NCI-N87
[33] = Compound 1 3.70 nM + Cisplatin 18556 nM, ratio 1:5010, NCI-N87
[34] = Compound 1 3.70 nM + FdUrd 4115 nM, ratio 1:1111, NCI-N87
[35] = Compound 1 3.70 nM + FdUrd 12346 nM, ratio 1:3333, NCI-N87
[36] = Compound 1 3.70 nM + FdUrd 37037 nM, ratio 1:10000, NCI-N87
[37] = Compound 1 3.70 nM + FdUrd 111111 nM, ratio 1:30000, NCI-N87

In the case of `C=CC(=O)N1CCC[C@@H](n2nc(C(=O)Nc3ccc(CC(=O)N(C)C)c(C)c3C)c3c(N)ncnc32)C1` [Compound 1, (R)-1-(1-acryloylpiperidin-3-yl)-4-amino-N-(4-(2-(dimethylamino)-2-oxoethyl)-2,3-dimethylphenyl)-1H-pyrazolo[3,4-d]pyrimidine-3-carboxamide], the CI [1] is reported as 0.62, the Fa [1] is reported as 0.39 and the CI [2] is reported as 0.03. For the same molecule, the Fa [2] was 0.69, the CI [3] was 0.37 and the Fa [3] was 0.68. The CI [4] was 0.01, the Fa [4] was 0.73 and the CI [5] was 0.26. The Fa [5] was 0.43, the CI [6] was 0.64 and the Fa [6] was 0.36. For the same molecule, the CI [7] was 0.57, the Fa [7] was 0.55 and the CI [8] was 0.39. For the same molecule, the Fa [8] was 0.25, the CI [9] was 0.46 and the Fa [9] was 0.30. The CI [10] was 0.63, the Fa [10] was 0.41 and the CI [11] was 0.35. The Fa [11] was 0.26, the CI [12] was 0.65 and the Fa [12] was 0.26. For the same molecule, the CI [13] was 0.38, the Fa [13] was 0.41 and the CI [14] was 0.34. The Fa [14] was 0.54, the CI [15] was 0.40 and the Fa [15] was 0.60. It also gave a CI [16] of 0.42, a Fa [16] of 0.72 and a CI [17] of 0.58. The Fa [17] was 0.33, the CI [18] was 0.70 and the Fa [18] was 0.39. For the same molecule, the CI [19] was 0.39, the Fa [19] was 0.54 and the CI [20] was 0.07. For the same molecule, the Fa [20] was 0.70, the CI [21] was 0.06 and the Fa [21] was 0.71. It also gave a CI [22] of 0.04, a Fa [22] of 0.77 and a CI [23] of 0.05. For the same molecule, the Fa [23] was 0.73, the CI [24] was 0.05 and the Fa [24] was 0.72. The CI [25] was 0.45, the Fa [25] was 0.50 and the CI [26] was 0.78. It also gave a Fa [26] of 0.24, a CI [27] of 0.71 and a Fa [27] of 0.31. For the same molecule, the CI [28] was 0.37, the Fa [28] was 0.48 and the CI [29] was 0.41. It also gave a Fa [29] of 0.55, a CI [30] of 0.68 and a Fa [30] of 0.59. For the same molecule, the CI [31] was 0.58, the Fa [31] was 0.54 and the CI [32] was 0.38. For the same molecule, the Fa [32] was 0.67, the CI [33] was 0.42 and the Fa [33] was 0.75. It also gave a CI [34] of 0.82, a Fa [34] of 0.39 and a CI [35] of 0.58. It also gave a Fa [35] of 0.47, a CI [36] of 0.41 and a Fa [36] of 0.56. The CI [37] was 0.60 and the Fa [37] was 0.57.

Reference: patent publication US11696917B2, “Agent enhancing antitumor effect using pyrazolo[3,4-d]pyrimidine compound” (TAIHO PHARMACEUTICAL CO., LTD., priority 2017, dated 2023)
